Test results as given in paper PMC5490406, “Syntheses of Radioiodinated Pyrimidine-2,4,6-Triones as Potential Agents for Non-Invasive Imaging of Matrix Metalloproteinases” (Pharmaceuticals, 2017).

Legend:
human active MMP-2 = biological target: T1, human active MMP-2 (Homo sapiens, UniProt P08253); test: fluorometric in vitro MMP inhibition assay, MMP-2; assay type: biochemical
T1 sequence (P08253 110-660): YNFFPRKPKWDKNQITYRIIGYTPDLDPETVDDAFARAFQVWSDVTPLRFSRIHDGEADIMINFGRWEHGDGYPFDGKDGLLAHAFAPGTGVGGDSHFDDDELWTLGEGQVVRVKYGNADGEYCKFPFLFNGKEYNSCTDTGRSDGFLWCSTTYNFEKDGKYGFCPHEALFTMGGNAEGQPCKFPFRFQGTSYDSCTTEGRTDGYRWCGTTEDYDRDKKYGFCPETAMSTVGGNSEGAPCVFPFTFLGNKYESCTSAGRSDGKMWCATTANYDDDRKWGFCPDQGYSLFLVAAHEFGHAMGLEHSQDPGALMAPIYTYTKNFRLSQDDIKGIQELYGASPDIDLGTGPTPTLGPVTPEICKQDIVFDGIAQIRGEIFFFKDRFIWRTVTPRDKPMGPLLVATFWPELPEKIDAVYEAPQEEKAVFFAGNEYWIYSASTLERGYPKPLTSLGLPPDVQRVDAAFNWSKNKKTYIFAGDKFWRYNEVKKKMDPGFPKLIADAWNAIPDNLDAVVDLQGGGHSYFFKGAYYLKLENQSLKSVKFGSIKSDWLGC
Description: (§1) The MMP inhibition potencies of the barbituric acid derivatives 5a, 5b, 6, 9 and 10 were measured in fluorometric in vitro inhibition assays as described previously.
(§2) An aliquot of substrate (10 μL of a 50 μM solution) was then added to 90 μL of the preincubated MMP/inhibitor mixture, and the fluorescence was determined at 37 °C by following product release with time. The fluorescence changes were monitored using a Fusion Universal Microplate Analyzer (Packard Bioscience, Boston, MA, USA) with excitation and emission wavelengths set to 330 and 390 nm, respectively. Reaction rates were measured from the initial 10 min of the reaction profile where product release was linear with time and plotted as a function of inhibitor dose. From the resulting inhibition curves, the IC50 values for each inhibitor were calculated by non-linear regression analysis, performed using the Grace 5.1.8 software (Linux).

human active MMP-9 = human active MMP-9 (Homo sapiens, UniProt P14780); test: fluorometric in vitro MMP inhibition assay, MMP-9; assay type: biochemical
Chain of human active MMP-9 (P14780 107-707 limits assumed): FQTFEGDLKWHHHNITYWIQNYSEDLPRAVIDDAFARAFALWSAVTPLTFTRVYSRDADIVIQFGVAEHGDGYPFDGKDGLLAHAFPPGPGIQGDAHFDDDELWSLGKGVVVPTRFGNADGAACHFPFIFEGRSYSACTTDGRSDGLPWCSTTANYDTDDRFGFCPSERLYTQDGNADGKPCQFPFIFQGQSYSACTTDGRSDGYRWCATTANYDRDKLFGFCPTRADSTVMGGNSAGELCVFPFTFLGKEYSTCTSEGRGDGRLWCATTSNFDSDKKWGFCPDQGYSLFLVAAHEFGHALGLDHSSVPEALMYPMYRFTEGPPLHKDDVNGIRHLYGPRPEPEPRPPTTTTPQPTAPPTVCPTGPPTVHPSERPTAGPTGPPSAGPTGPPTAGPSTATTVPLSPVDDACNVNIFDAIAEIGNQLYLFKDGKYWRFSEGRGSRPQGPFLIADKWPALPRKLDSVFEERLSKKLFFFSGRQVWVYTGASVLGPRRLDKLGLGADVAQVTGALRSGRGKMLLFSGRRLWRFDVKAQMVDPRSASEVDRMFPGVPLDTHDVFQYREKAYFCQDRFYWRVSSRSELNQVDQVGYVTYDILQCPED
Description: as §1, §2

human active MMP-8 = human active MMP-8 (Homo sapiens, UniProt P22894); test: fluorometric in vitro MMP inhibition assay, MMP-8; assay type: biochemical
Chain of human active MMP-8 (P22894 101-467): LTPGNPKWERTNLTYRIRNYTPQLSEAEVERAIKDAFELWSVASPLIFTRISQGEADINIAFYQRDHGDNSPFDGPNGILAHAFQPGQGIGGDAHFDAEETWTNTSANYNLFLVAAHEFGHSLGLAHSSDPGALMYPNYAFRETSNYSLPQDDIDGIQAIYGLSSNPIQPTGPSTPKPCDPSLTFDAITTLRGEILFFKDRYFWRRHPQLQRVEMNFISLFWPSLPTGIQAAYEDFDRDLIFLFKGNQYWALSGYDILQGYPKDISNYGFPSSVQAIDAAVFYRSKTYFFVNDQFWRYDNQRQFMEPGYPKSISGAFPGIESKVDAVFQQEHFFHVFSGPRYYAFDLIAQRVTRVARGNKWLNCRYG
Description: as §1, §2

human active MMP-13 = human active MMP-13 (Homo sapiens, UniProt P45452); test: fluorometric in vitro MMP inhibition assay, MMP-13; assay type: biochemical
Description: as §1, §2

human active MMP-14 = human active MMP-14 (Homo sapiens, UniProt P50281); test: fluorometric in vitro MMP inhibition assay, MMP-14; assay type: biochemical
Description: as §1, §2

[1] = calculated logP/logD (ACD/Chemsketch ACD/Labs 6.00); settings: relative to 12
[2] = IC50 MMP-2, mean ± SD of three assays
[3] = IC50 MMP-9, mean ± SD of three assays
[4] = IC50 MMP-2 (range given jointly for MMP-2 and -9), summary of Table 1
[5] = IC50 MMP-9 (range given jointly for MMP-2 and -9), summary of Table 1

Row | Compound | IC50 (human active MMP-2; [2]) | IC50 (human active MMP-9; [3]) | melting point | IC50 (human active MMP-2; [4]) | IC50 (human active MMP-9; [5]) | IC50 (human active MMP-8) | IC50 (human active MMP-13) | IC50 (human active MMP-14) | increased water solubility compared to 12, inferred from clogD shift [1]
1 | O=C1NC(=O)C(c2ccc(I)cc2)(N2CCN(CCO)CC2)C(=O)N1 [5a, 5-[4-(2-Hydroxyethyl)piperazin-1-yl]-5-(4-iodophenyl)pryrimidine-2,4,6-trione] | 10 ± 3 nM | 550 ± 180 nM | 168 to 172 °C | – | – | – | – | – | –
2 | O=C(O)CCN1CCN(C2(c3ccc(I)cc3)C(=O)NC(=O)NC2=O)CC1 [5b, 5-[4-(2-Carboxyethyl)piperazin-1-yl]-5-(4-iodophenyl)pyrimidine-2,4,6-trione] | 1200 ± 340 nM | 1600 ± 600 nM | 139 to 142 °C | 670 to 1600 nM | 670 to 1600 nM | – | – | – | –
3 | O=C1NC(=O)C(c2ccc(O)c(I)c2)(N2CCN(CCO)CC2)C(=O)N1 [compound 6, 5-(4-Hydroxy-3-iodophenyl)-5-[4-(2-hydroxyethyl)piperazin-1-yl]pryrimidine-2,4,6-trione] | 670 ± 210 nM | 1300 ± 320 nM | 168 to 170 °C (dec.) | 670 to 1600 nM | 670 to 1600 nM | – | – | – | –
4 | O=C(O)CCN1CCN(C2(c3ccc(Oc4ccc(I)cc4)cc3)C(=O)NC(=O)NC2=O)CC1 [compound 9, 5-[4-(2-Carboxyethyl)piperazin-1-yl]-5-[4-(4-iodophenoxy)phenyl]pyrimidine-2,4,6-trione] | 29 ± 2 nM | 1.3 ± 0.2 nM | 236 to 242 °C (dec.) | – | – | 1170 ± 80 nM | 362 ± 24 nM | 49 nM | approximately 400 fold
5 | O=C1NC(=O)C(c2ccc(Oc3ccc(I)cc3)cc2)(N2CCN(CCOCCOCCOCCF)CC2)C(=O)N1 [compound 10, 5-(4-(2-(2-(2-(2-Fluoroethoxy)ethoxy)ethoxy)ethyl)piperazin-1-yl)-5-(4-(4-iodophenoxy)phenyl)-pyrimidine-2,4,6-trione] | 23 ± 5 nM | 17 ± 5 nM | 176 to 177 °C | – | – | 146 ± 48 nM | 28 ± 11 nM | – | –
